In article PMC11029812, “Liver-targeted polymeric prodrugs delivered subcutaneously improve tafenoquine therapeutic window for malaria radical cure” (Science Advances, 2024):
Like-named read-outs stand apart in the source and are kept apart here.

Assays:
G6PD-deficient huRBCs = assay: Hemotoxicity in humanized G6PD deficiency mouse model; format: in vivo, human RBCs engrafted in NOD/SCID mice; conditions: single dose day 0; pSVCTQ SC, TQ oral; A− G6PD-deficient donor
Method: (§1) Following procedures as previously published ([46]), hemotoxicity studies using huRBC engraftments were conducted in mice.
(§2) Female (8 to 9 weeks) NOD.CB17-Prkdcscid/J [nonobese diabetic severe combined immunodeficient (NOD/SCID)] mice were purchased from The Jackson Laboratory (Bar Harbor, ME). The animals were housed in a cage maintained in a specific pathogen–free animal facility and were acclimated for 1 week in the facility before initiation of experimental procedures. Sterile food and water were provided ad libitum throughout the study as previously described ([64]). All animal studies were performed under IACUC-approved protocols and adhere to the principles stated in the Guide for the Care and Use of Laboratory Animals ([100]).
(§3) Polymer solutions for SC administration were prepared in DPBS at the final dosing concentrations. All drug concentrations were calculated per the free base molecular weights of TQ. The TQ parent compound was administered intragastrically via an intragastric feeder tube. Polymers and vehicle were administered SC in the right flank. TQ, pSVCTQ, and vehicle were given as a single dose on day 0. In this model, the TQ dose studied was 10 mg/kg; pSVCTQ was tested at doses of 2.5, 5.0, or 10 mg/kg TQ equivalent.
(§4) The percentage of huRBCs at the end of this period was analyzed by flow cytometry to evaluate glycophorin A (huRBCs) and Ter119 (mouse RBCs) circulating in peripheral blood. […] The G6PD-deficient huRBC NOD/SCID mice were dosed with pSVCTQ or parent drug prepared as described above, with three to four mice per group. On days 4 and 7 following dosing, huRBC levels were assessed again by flow cytometry (glycophorin^+Ter119^−), along with the percentage of murine reticulocytes (CD71^+Ter119) as an additional marker of hemolytic toxicity. Mice were euthanized on day 7 following initiation of treatment.
(§5) Microsoft Excel and GraphPad Prism were used throughout the PK analysis to process the data, calculate pharmacokinetic parameters, and yield statistical information. A linear regression model was produced using the least squares fitting method with 1/x^2 scaling for the assay calibrators. […] For the G6PD deficiency model, data analysis was performed using GraphPad Prism (GraphPad Software). […] An F test comparing the two dose-response curves was also run. For all other work, a combination of Microsoft Excel and GraphPad Prism was used.

[1] = as above; format: in vivo, human RBCs engrafted in NOD/SCID mice; conditions: female, NOD/SCID (NOD.CB17-Prkdcscid/J), mouse, in vivo; curve fit of Fig. 4B; single dose; pSVCTQ SC, TQ oral; day 7; read-out: Dose resulting in 50% hemolysis (TD50)
Method: as §1, §2, §3, §4, §5

[2] = parameters: method as in PMID 28749773; conditions: G6PD-deficient cohort, cited from earlier work
P. berghei = P. berghei luciferase and blood parasitemia model of causal prophylaxis; format: in vivo
Method: Efficacy studies in the P. berghei mouse model of causal prophylaxis were conducted at the Walter Reed Army Institute of Research, Experimental Therapeutics Branch as previously described ([46]).
Luciferase-expressing P. berghei ANKA sporozoites were obtained from laboratory-reared female Anopheles stephens mosquitoes as previously described ([46]). Sporozoites were recovered by the method of Li et al. ([62]) and quantitated using a hemocytometer. Sporozoites isolated from the same batch of mosquitoes were inoculated into mice on the same day to control biological variability in sporozoite preparations. Each animal was inoculated IV in the tail vein with approximately 10,000 sporozoites suspended in 0.1-ml volume on day 0.
Age-matched, 40 young adult (7-week-old) female C57BL/6 albino mice were purchased from Charles River Laboratories (Frederick, MD). On arrival, animals were acclimated for 7 days in quarantine. Mice were housed and maintained at a temperature range of 64° to 79°F, 34 to 68% relative humidity, and a 12-hour light/dark cycle. Food and water were provided ad libitum. Animals were fed a standard rodent maintenance diet. All animal use, care, and handling was conducted under an IACUC-approved animal use protocol in an Association for Assessment and Accreditation for Laboratory Animal Care International (AAALACi)–accredited facility with a Public Health Services Animal Welfare Assurance and in compliance with the Animal Welfare Act and other federal statutes and regulations relating to laboratory animals.
TQ was dissolved at a stock concentration of 1 mg/ml in 25% hydroxy-β-cyclodextrin acidified to pH 5 with acetic acid and diluted in DPBS for final dosing solutions. Polymers for parenteral administration were prepared in DPBS at the final dosing concentrations. All drug concentrations were calculated per the free base molecular weights of TQ. TQ parent compounds were administered intragastrically via an intragastric feeder tube. Vehicle groups (0.1 ml of DPBS) and polymer groups were administered SC in the right flank. Free TQ, vehicle, and polymers were given as a single dose on day −1. In this model, the pSVCTQ doses studied were 5.0, 7.5, or 10 mg/kg TQ equivalent.
Whole-body IVIS imaging of bioluminescence activity from luciferase-expressing P. berghei–infected mice was performed using a PerkinElmer IVIS Spectrum. Mice were evaluated at 24, 48, and 72 hours after sporozoite inoculation to determine liver- and blood-stage malaria infection. Mice received luciferin (150 mg/kg, Gold Biotechnology, St. Louis, MO) intraperitoneally in a maximal volume of 150 μl. Three minutes after luciferin administration, the mice were anesthetized with inhaled isoflurane and positioned ventral side up in the IVIS Spectrum on a 37°C platform. The mice continued to receive isoflurane through nose cone delivery. The camera exposure times used were 1 or 5 min for the 24-, 48-, and 72-hour time points with f-stop = 1, and the large binning setting was chosen. Quantitative analysis of bioluminescence emitted from whole bodies or […] (ROI) were determined by measuring the luminescence signal intensity in photons per second using the ROI settings of the Living Image 3.0 software. The ROI, expressed in total flux of photons, was set to measure the abdominal area at the location of the liver from whole-body imaging ([62]). The data were generally found to fit a normal distribution. Means and SDs of photon measurement were calculated.
On days 5 to 31 after infection, mice were analyzed for blood-stage infections by quantitation of malaria parasites in erythrocytes by flow cytometry. Blood (3 μl) from the mouse tail was collected directly into 0.3 ml of 1% heparinized isotonic buffer (PBS saline). After addition of 1 ml of 0.04% of glutaraldehyde for fixation, the samples were incubated at 4°C for 60 min. Cells were centrifuged at 450g for 5 min. […]

[3] = Tissue pharmacokinetics of released TQ and its metabolites in liver, plasma and urine (LC-MS/MS); format: in vivo, BALB/c mice
[4] = Polymer biodistribution (IVIS imaging) and liver hepatocyte localization (histology); format: in vivo; conditions: mice
Method: Mice were dosed SC with rhodamine-labeled pSVCTQ at the dose of equivalent 25 mg/kg TQ, which were then euthanized at 8 hours after injection. Selected organs, including liver, kidneys, lungs, spleen, heart, and brain, were harvested and washed with PBS before imaging studies (IVIS) using fluorescent mode at (excitation/emission: 530/585 nm), Caliper Xenogen IVIS (PerkinElmer, Hopkinton, MA). The radiant efficiency emitted from the organs in each mouse was subsequently quantified using Xenogen Living Image software. Mice treated with PBS served as controls (fig. S12). Three mice were included in each group.
Rhodamine-labeled pSVCTQ was formulated in PBS and SC administered in mice at a dose of 25 mg/kg TQ equivalent. Mice receiving PBS served as controls. The liver was harvested at 8 hours after injection and immediately fixed in 10% neutral buffered formalin at 4°C for 4 hours. After washing three times in cold PBS, the liver tissue was sunk in 15% sucrose solution for 24 hours and then in 30% sucrose solution for 24 hours at 4°C. The sucrose solution was prepared in DPBS (1×, with Mg^2+ and Ca^2+). The liver tissue was then blotted with paper tissue and embedded in an optimal cutting temperature compound. The sample was frozen in prechilled isopentane in liquid nitrogen and stored at −80°C. The 5-μm-thick sections were prepared using CryoStat at −20°C. Alexa Fluor 488 phalloidin was diluted 1:50 in PBS and used to counterstain the sections for 1 hour at room temperature (RT) to visualize cell outlines. The cell nuclei were counterstained with DAPI (blue) for 5 min at RT. Sections were imaged using an epi-fluorescent microscope (Nikon Eclipse 90i and Hamamatsu C10600 Camera at 20× magnification) using GFP-B HYQ (excitation/emission: 450/550 nm) Texas red HYQ (excitation/emission: 535/580 nm) and ultraviolet illumination (excitation/emission: 350/470 nm).

[5] = female, BALB/c, mouse, in vivo, po, 10 mg/kg
[6] = 8 hours after SC 25 mg/kg TQ equivalent

## COc1cc(C)c2c(Oc3cccc(C(F)(F)F)c3)c(OC)cc(NC(C)CCCN)c2n1 (stereo not shown) [TQ, tafenoquine]
G6PD-deficient huRBCs
  Median effective dose (dose that results in 50% huRBC loss by day 7 relative to vehicle control): 4.7 mg/kg
[1]
  TD50 at 7 days: 5 mg/kg
[2]; 100-mg dose
  Hemolytic toxicity (decreases in hemoglobin and hematocrit): did not produce hemotoxicity
[2]; 300-mg dose
  Hemolytic toxicity (decreases in hemoglobin and hematocrit): dose-limiting
P. berghei; 10 mg/kg PO, single dose day −1, 31 days, n = 5
  Mice survived: 2/5
P. berghei; 10 mg/kg oral, single dose day −1
  Blood parasitemia suppression: partial suppression of parasitemia
P. berghei; 10 mg/kg single dose day −1, pSVCTQ SC, TQ oral
  IVIS signal during days 1 to 3: completely suppressed
[3]; [5]
  AUC: 22400 ng·h/mL
  AUC, liver: 1404 μg/g liver*hour
  Cmax: 380 ng/mL
  Cmax, liver: 17 μg/g liver
  Kp: 62.8
  Tmax: 8 h

## p(GMA-co-SVATQMA) [tri-antennary GalNAc polymeric prodrug]
[3]; SC 10 mg/kg dose, mice (fig. S15C)
  Liver AUC drug exposure compared with the copolymer: equivalent to the copolymer

## p(GalNAc-MA-co-SVCTQ-MA-co-RheMA) [rhodamine-labeled pSVCTQ]
[4]; [6]
  Fluorescence in lungs, heart, spleen, and brain (IVIS): little fluorescence intensity
  Fluorescence in the kidneys (IVIS): low level of fluorescence
  Liver accumulation (IVIS fluorescence): accumulate in the liver with high selectivity
[4]; liver 8 hours after SC 25 mg/kg TQ equivalent
  Liver penetration / hepatocyte distribution (cross-sectional histology): present in every hepatocyte

## p(GalNAc-MA-co-VCTQ-MA) [pVCTQ]
[3]; 25 mg/kg, IV, mice
  Liver:plasma AUC ratio: 120
[3]; TQ in liver, 25 mg/kg TQ equivalent, IV, mice, t = 0 to 336 hours
  AUC, liver: 2725 μg/g liver*hour
[3]; TQ in liver, 25 mg/kg, IV, mice
  Cmax, liver: 48 μg/g liver

## p(GalNAc-co-MSEMA-co-SVCTQMA) [lower GalNAc polymeric prodrug design]
[3]; TQ in liver and plasma after SC 10 mg/kg dose, mice (fig. S15B)
  PK properties compared with pSVCTQ: preserved much of the PK properties
